In PubChem BioAssay (NCI) one finds GI50 and TGI data, which are given here for 36 molecules.

The structures appear in SMILES notation.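 Step 1: Grow cells in 96-well plates. Step 2: Expose to compound for 48 hours at 5 concentrations. Step 3: Interpolate endpoints linearly; if unreached, use highest concentration. Here, GI50 denotes the concentration required for 50% inhibition of growth. TGI: concentration producing complete growth inhibition.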 Some results are limits rather than exact numbers.

For this test, the system named is MDA-MB-468 breast. As to the kind of experiment: NCI tumour cell line growth inhibition, 48 h.
Regarding `COc1ccc(-c2ccc(OC)c(OC)c2OC)cc1`, the GI50 was 0.377 µM and the TGI came out at 4.37 µM.

As for `NC(N)=N/N=C\c1ccc(OCc2ccccc2)cc1`, the GI50 is 1.23 µM and the TGI was found to be 2.64 µM.

For the molecule `COc1cc(N2C(=O)[C@H](Cl)C2c2ccc(SC)cc2)cc(OC)c1OC` (some centres not stated), the GI50 was 0.274 µM and the TGI is > 100 µM.

As for `Cn1c(COC(=O)NCCn2ccnc2)nc2c(N3CCOCC3)nc(-c3ccccc3)nc21`, the GI50 is 0.36 µM and the TGI is 1.46 µM.

For the molecule `O=C1C=CC(=O)c2c(O)c(N3CCN(CCO)CC3)c(Cl)c(O)c21`, the GI50 is 0.286 µM and the TGI was 1 µM.

Regarding `C#C[C@]1(O)CC[C@H]2[C@@H]3CC=C4c5sc(Nc6ccc(Cl)cn6)nc5CC[C@]4(C)[C@H]3CC[C@@]21C`, the GI50 is 7.65 µM and the TGI was > 100 µM.

With `CC(C)(C)C[C@H]1N[C@@H](C(=O)NC2CCC(O)CC2)[C@H](c2cccc(Cl)c2F)[C@@]12C(=O)Nc1cc(Cl)ccc12` (some centres not stated), the GI50 is 3.54 µM and the TGI amounted to 18.5 µM.

For `O=C(Nc1n[nH]c2cc(-c3cc(F)ccc3F)ccc12)C1CC1`, the GI50 is 6.06 µM and the TGI is > 25 µM.

On to `O=C1C(=O)c2c(nc3ccc(C(F)(F)F)cn23)-c2ccccc21`, for which the GI50 is 0.234 µM and the TGI came out at 0.56 µM.

As for `Cn1c(COC(=O)NCCc2ccccn2)nc2c(N3CCOCC3)nc(Cl)nc21`, the GI50 is 1.56 µM and the TGI stood at 3.77 µM.

For `CC1=NN(c2cccc(Cl)c2)C(=O)/C1=C\c1cn(CC(O)CN2CCCCC2)c2ccccc12` (configuration not stated), the GI50 is 10.4 µM and the TGI stood at 25.5 µM.

Take `CCN(CC)C(=S)SSC(C)C`: the GI50 is 17.3 µM and the TGI stood at 45.8 µM.

With `CCOC(=O)Nc1ccc2nc(-c3cscn3)[nH]c2c1`, the GI50 was 2.44 µM and the TGI was > 100 µM.

For `C[C@@H]1C[C@@H]([C@H](O)CC2CC(=O)NC(=O)C2)C(=O)[C@@H](C)C1`, the GI50 was 0.25 µM and the TGI was 4.05 µM.

Regarding `OCc1ccc(N(Cc2ccc(F)cc2)Cc2ccc(F)cc2)cc1Cl`, the GI50 was 0.341 µM and the TGI was 1.7 µM.

`COc1ccc2c(c1)C(=O)c1c-2c(OCCCN(C)C)nc2cc(Br)ccc12`: the GI50 is 4.68 µM and the TGI stood at 18 µM.

Consider `CCCCNC(c1ccc(Cl)cc1)C(O)c1ccc(Cl)cc1` (configuration not stated), for which the GI50 is 1.69 µM and the TGI was 3.3 µM.

Take `Cn1c(I)c(C#C[Si](C)(C)C)c(=O)n(C(=O)c2ccccc2)c1=O`: the GI50 is 1.19 µM and the TGI is 2.87 µM.

For `CN(C)CCC(=O)Nc1ccc(-n2cc(-c3cccc(NC(=S)Nc4cccc(-c5cn(-c6ccc(NC(=O)CCN(C)C)cc6)nn5)c4)c3)nn2)cc1`, the GI50 is 4.74 µM and the TGI is 22.7 µM.

On to `O=c1[nH]c(C2CCCN2)nc2c1oc1ccc(Cl)cc12` (configuration not stated), for which the GI50 was > 67.4 µM and the TGI is > 100 µM.

For `O=C(NCc1ncc[nH]1)c1ccc(-c2nc3ccc4[nH]ncc4c3c3c2CCCC3)cc1`, the GI50 was 0.64 µM and the TGI was 1.85 µM.

`O=C1NC(=NCCc2ccc(Cl)cc2)S/C1=C\c1ccc2ncccc2c1`: the GI50 was 7.5 µM and the TGI is > 25 µM.

As for `C[C@@]1(F)[C@H](O)[C@@H](CO)O[C@H]1n1ccc(=O)[nH]c1=O`, the GI50 is > 100 µM and the TGI was > 100 µM.

On to `C/C(=N/NC(=S)Nc1ccccc1)c1nc2ccc(Cl)cc2[nH]1`, for which the GI50 was 0.181 µM and the TGI was determined as 0.776 µM.

As to `O=C1c2cc3c(cc2-c2c1c1cc(F)c(F)cc1c(=O)n2CCCn1ccnc1)OCO3`, the GI50 is 0.0205 µM and the TGI turned out to be 0.0907 µM.

For `C/C(=C(/c1ccc(O)cc1)c1ccc(OCCN(C)C)cc1)c1ccc(Cl)cc1`, the GI50 was 13.4 µM and the TGI worked out at 31.9 µM.

For the molecule `CCCCCCCC/C=C/CCCCCCCC1=NC(C)(C)CN1C(C)(C)CO`, the GI50 is 1.73 µM and the TGI was 3.23 µM.

For `Cc1ccccc1NC(=O)Nc1nc2ccc([N+](=O)[O-])cc2s1`, the GI50 was 2.41 µM and the TGI was found to be 5.37 µM.

As for `COC1=CC(c2ccc[nH]2)=N/C1=C\c1[nH]c(C)c(C(=O)CCCCCCCCC(=O)O[C@H]2CC[C@H]3C4CCc5cc(O)ccc5C4CC[C@]23C)c1C` (some centres not stated), the GI50 was 0.56 µM and the TGI is > 50 µM.

For the molecule `COc1cc(C2CC(c3ccc(Nc4nc(NCCO)nc(NCCO)n4)cc3)=NN2c2cc(Cl)cc(Cl)c2)cc(OC)c1OC` (configuration not stated), the GI50 was 1.68 µM and the TGI stood at 4.48 µM.

With `Nc1cc2c3c(cccc3c1)C(=O)N(CCN1CCCC1)C2=O`, the GI50 is 4.48 µM and the TGI came to 21.1 µM.

Consider `Cc1cccc(N2C(=O)/C(=C/C(Cl)=C/c3ccc([N+](=O)[O-])cc3)SC2=S)c1C`, for which the GI50 was 1.69 µM and the TGI is 4.25 µM.

As for `COc1ccc2[nH]c(C(=O)N3CCN(C(=O)OCc4ccc5c(Cl)cc(Cl)c(O)c5n4)CC3)cc2c1`, the GI50 was 1.26 µM and the TGI worked out at 2.78 µM.

Turning to `COc1cc(/C=N/NC(=O)c2cnn3c2NC(c2ccccc2)C3)ccc1OC1CCCC1` (configuration not stated), the GI50 was 0.524 µM and the TGI was 5.71 µM.

As for `CCCCCCCC(=O)OCC/C=C/C1OC1C1OC(=O)/C=C\C=C\C(=O)N(C(C)=O)C(=O)/C=C(/C)CCC2OC2C1OC(=O)NC(C)=O` (configuration not stated), the GI50 was 1.21 µM and the TGI was determined as 5.6 µM.

As for `COc1ccc(-n2c(=S)sc3c(Cl)nc(C)nc32)c(OC)c1`, the GI50 is 1.98 µM and the TGI amounted to 6.57 µM.
